Read-outs that look alike come from different tables or passages of the source.
Assays:
[1] = system: PC-3; test: Quantitative videomicroscopy, PC-3; type: cell-based, human
Protocol: Use was made of computer-assisted phase-contrast microscopy (quantitative videomicroscopy) in the attempt to elucidate an overall picture of UNBS5162's mechanism of action. […] In addition, 10 μM UNBS5162 caused a marked enlargement in PC-3 cells by the end of the 6-day treatment period compared with the start of the experiment.

[2] = system: Mk-CFC; test: HALO hematotoxicity assay, mouse Mk-CFC; type: cell-based; settings: 5 days culture, iATP
Protocol: Investigation of the hematotoxic potential of UNBS5162 was undertaken by HemoGenix (Colorado Springs, Colo.). The effects of UNBS5162 on stem and progenitor cell populations from murine and human bone marrow were assessed using HALO (Hematopoietic/Hematotoxicity Assay through Luminescence Output) technology. Stem and hematopoietic progenitor cell populations were isolated from mouse and human bone marrow samples, plated at a concentration of 1.0×10^4 cells/well and cultured for 5 and 7 days, respectively, in the presence of growth factors and increasing concentrations of UNBS5162 ranging from 0.5 nM to 50 μM. The proliferative or growth potential of cell populations was determined from intracellular ATP (iATP) concentrations and a luciferin/luciferase bioluminescence signal detection system. All samples were assayed in eight replicates. The results are presented as estimated inhibitory concentration (IC) values.

[3] = system: P-glycoprotein; test: P-gp ATPase activity (P-gp Drug interaction Assay Kit); type: biochemical
Protocol: In order to test drug interaction with P-glucoprotein (herein-after referred as P-gp) we used an assay based on the study of modulation of ATPase activity from enriched P-gp membrane vesicle preparation (the following kit has been used: P-gp Drug interaction Assay Kit commercially available from SPI BIO France). P-gp ATPase activity was measured by a spectrophotometric method based on monitoring of ADP formation in the vesicle suspension medium. The basal ATPase activity was defined as the activity determined in the absence of any added drug. […]

[4] = system: PC-3; test: Autophagy: acidic vesicular organelles, acridine orange flow cytometry, PC-3; type: cell-based, human; settings: red fluorescence, up to 10 μM
Protocol: (§1) The cytoplasm and nucleus fluoresce green in acridine orange-stained cells, and the acidic compartments fluoresce red. The intensity of the red fluorescence is proportional to the degree of acidity and the volume of acidic vesicular organelles, including autophagic vacuoles. To quantify the development of acidic vesicular organelles, the cells were stained with acridine orange for 15 minutes and removed from the plate with trypsinization. Cells were then analyzed by flow cytometry. Each sample was evaluated in triplicate.

[5] = system: CXCL1, CXCL2, CXCL3, CXCL5, CXCL6, and CXCL8 chemokines; test: CXCL chemokine expression (microarray and ELISA), PC-3; type: cell-based, human; settings: 1 μM five times a week
Protocol: Two different Quantikine ELISA kits (R&D Systems, Abingdon, UK) for the quantification of human CXCL1 and CXCL8 (IL-8) were used in this study in accordance with the manufacturer's instructions. Cell culture supernatants were collected after different treatments and periods, with multiple aliquots taken and stored at −20° C. until analysis.

[6] = system: OE21 xenograft; test: s.c. metastatic OE21 xenograft nude mice model; type: in vivo; settings: UNBS5162 10 mg/kg i.v. with cisplatin 5 mg/kg i.p.
Protocol: To enable the achievement of pertinent in vivo studies, a highly metastatic s.c. model was developed by grafting OE21 cells subcutaneously into nude mice. […] In line with this, an experiment combining cisplatin to UNBS5162 was performed.
The treatment protocol included following conditions: • UNBS5162: N-{2-[2-(dimethylamino)ethyl]-1,3-dioxo-2,3-dihydro-1H-benzo[de]isoquinolin-5-yl}urea
Dose (mg/kg): 10 mg/kg (1.35 eq lactic acid) Dose volume: 200 μL/mouse Schedule: 3 injection(s) per week; 5 weeks (3i×5w)
Dose (mg/kg): 5 mg/kg (saline) Dose volume: 200 μL/mouse Schedule: 1 injection per week; 5 weeks (1×5)
Cisplatine (1×5)×5 mg/kg i.p.=>group 1 UNBS5162 (3×5)×10 mg/kg i.v.=>group 3 Cisplatine (1×3)×5 mg/kg i.p.=>1 w without treatment=>UNBS5162 (3×5)× […] i.v.=>group 4

[7] = system: BxPC3; test: MTT overall cell growth, BxPC3 cells; type: cell-based; settings: Homo sapiens
Protocol: Tests were performed in order to rapidly, i.e. within 5 days, measure the effect of the compound of example 2 on the overall cell growth. The test measures the number of metabolically active living cells that are able to transform the yellow product 3-(4,5-dimethylthiazol-2-yl)-2,5-diphenyl tetrazolium bromide (herein referred as MTT) into the blue product formazan dye by mitochondrial reduction. The amount of formazan obtained at the end of the experiment, measured by means of a spectrophotometer, is directly proportional to the number of living cells. Optical density determination thus enables a quantitative measurement of the effect of the investigated compounds as compared to the control condition (untreated cells) and/or to other reference compounds.
Six human cancer cell lines described in table 1 were used in the following MTT tests. These cell lines cover six histological cancer types, being prostate, glioma, pancreas, colon, lung and breast cancers. Cells were allowed to grow in 96 well micro-wells with a flat bottom with an amount of 100 μl of cell suspension per well with 1,000 to 4,000 cells/well depending on the cell type used. Each cell line was seeded in a well known MEM 10% serum culture medium. […]
After 72 hours of incubation at 37° C. with (experimental conditions) or without (control condition) the compound to be tested, the medium was replaced by 100 μl MTT dissolved in RPMI (1640 without phenol red) at a concentration of 1 mg/ml. […] The micro-wells were shaken for 5 minutes and read on a spectrophotometer at wavelengths of 570 nm (maximum formazan absorbance) and 630 nm (back-ground noise).
For each experimental condition, the mean optical density was calculated, as well as the percentage of remaining living cells in comparison with the control.
The overall growth of human cancer cell lines was determined by means of the calorimetric MTT (3-[4,5-dimethylthiazol-2-yl]-diphenyl tetrazolium bromide; Sigma) assay, as detailed previously.

[8] = system: DU-145; test: Autophagy: acidic vesicular organelles, acridine orange flow cytometry, DU-145; type: cell-based, human; settings: red fluorescence, up to 10 μM
Protocol: as §1

Structure (SMILES): CN(C)CCN1C(=O)c2cccc3cc(NC(N)=O)cc(c23)C1=O [UNBS5162, N-{2-[2-(dimethylamino)ethyl]-1,3-dioxo-2,3-dihydro-1H-benzo[de]isoquinolin-5-yl}urea]
- cell dynamics (videomicroscopy) ([1]; 1 μM): induced no detectable changes
- cell population development (videomicroscopy) ([1]; 10 μM, six days of observation): prevented PC-3 cell population development
- IC50 ([2]; 120 h): 5.94 µM
- IC90 ([2]; 120 h): 9.61 µM
- IC75 [2]: 7.53 µM
- modulation of Pgp ATPase activity ([3]; 100 μM (data not shown)): do not affect Pgp ATPase activity
- modulation of basal P-gp ATPase activity ([3]; 2, 10, and 50 μM): does not affect ATPase activity
- pro-autophagic effects (acidic vesicular organelles) [4]: had a proautophagic effect
- pro-autophagic effects (acidic vesicular organelles) ([4]; listed as example 2): pro-autophagic effects
- expression of proangiogenic CXCL chemokines (mRNA and protein) [5]: dramatically decreased
- anti-tumor effect in combination with cisplatin (tumor size) [6]: enhanced the activity of cisplatin
- IC50 ([7]; BXPC-3, 72 h, Bx-PC-3, 3 days of culturing, mean of six determinations, read-out: IC50 (μM) In Vitro Growth Inhibition): 9.1 µM
- IC50 ([7]; BXPC-3, BxPC3, 72 hours incubation, range of molar concentrations, read-out: IC50): 5 to 10 µM
- pro-autophagic effects (acidic vesicular organelles) [8]: had a proautophagic effect
- pro-autophagic effects (acidic vesicular organelles) ([8]; listed as example 2): pro-autophagic effects

Source: US20090186915A1, “Compositions and methods for treatment of glioblastoma, gliosarcoma, NSCLC, and head and neck cancer” (Unibioscreen S. A., priority 2006, published 2009)
